Active and inactive are the calls of the source. The calls are words filed in the database; no cut-off is given here.
How the values were obtained:
Format in all cases: cell-based
[1] = target: T1, Transient receptor potential cation channel subfamily V member 3 (Homo sapiens) (UniProt Q8NET8); assay: Antagonist activity at human TRPV3 channel expressed in HEK293T cells assessed as inhibition of 2-APB induced channel current at 50 uM by whole cell patch clamp recordings relative to control
T1 sequence (whole entry): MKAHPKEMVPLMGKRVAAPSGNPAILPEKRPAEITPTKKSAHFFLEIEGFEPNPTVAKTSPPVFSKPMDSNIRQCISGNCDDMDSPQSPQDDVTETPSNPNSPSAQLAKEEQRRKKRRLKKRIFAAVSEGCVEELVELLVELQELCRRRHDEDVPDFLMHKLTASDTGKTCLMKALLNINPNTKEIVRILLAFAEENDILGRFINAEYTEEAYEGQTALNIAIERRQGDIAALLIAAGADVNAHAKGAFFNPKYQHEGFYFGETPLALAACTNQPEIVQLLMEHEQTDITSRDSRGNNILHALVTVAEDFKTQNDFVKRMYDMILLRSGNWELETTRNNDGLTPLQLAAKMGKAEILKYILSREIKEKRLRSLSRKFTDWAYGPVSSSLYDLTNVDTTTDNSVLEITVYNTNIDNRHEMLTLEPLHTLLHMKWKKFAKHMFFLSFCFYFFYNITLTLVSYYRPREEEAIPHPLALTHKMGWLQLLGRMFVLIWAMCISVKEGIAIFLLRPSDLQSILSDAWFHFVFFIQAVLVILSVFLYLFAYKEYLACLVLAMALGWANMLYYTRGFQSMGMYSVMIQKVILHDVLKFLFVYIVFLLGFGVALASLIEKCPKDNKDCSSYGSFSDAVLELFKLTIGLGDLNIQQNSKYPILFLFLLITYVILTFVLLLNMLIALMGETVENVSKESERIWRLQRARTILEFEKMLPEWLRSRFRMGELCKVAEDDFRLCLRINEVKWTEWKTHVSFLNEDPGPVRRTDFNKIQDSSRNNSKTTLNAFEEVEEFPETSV

[2] = target: T2, Transient receptor potential cation channel subfamily V member 3 (Homo sapiens, UniProt Q8NET8); assay: Antagonist activity at human TRPV3 channel expressed in HEK293T cells assessed as inhibition of 2-APB induced channel current by whole cell patch clamp recordings
T2 sequence (Q8NET8 whole entry): T1 sequence (whole entry)

[3] = target: Transient receptor potential cation channel subfamily A member 1 (Homo sapiens) (UniProt O75762); assay: Antagonist activity at TRPA1 (unknown origin) expressed in HEK293T cells assessed as inhibition of agonist induced channel current by whole-cell patch clamp recordings
Sequence of Transient receptor potential cation channel subfamily A member 1 (Homo sapiens) (O75762 whole entry): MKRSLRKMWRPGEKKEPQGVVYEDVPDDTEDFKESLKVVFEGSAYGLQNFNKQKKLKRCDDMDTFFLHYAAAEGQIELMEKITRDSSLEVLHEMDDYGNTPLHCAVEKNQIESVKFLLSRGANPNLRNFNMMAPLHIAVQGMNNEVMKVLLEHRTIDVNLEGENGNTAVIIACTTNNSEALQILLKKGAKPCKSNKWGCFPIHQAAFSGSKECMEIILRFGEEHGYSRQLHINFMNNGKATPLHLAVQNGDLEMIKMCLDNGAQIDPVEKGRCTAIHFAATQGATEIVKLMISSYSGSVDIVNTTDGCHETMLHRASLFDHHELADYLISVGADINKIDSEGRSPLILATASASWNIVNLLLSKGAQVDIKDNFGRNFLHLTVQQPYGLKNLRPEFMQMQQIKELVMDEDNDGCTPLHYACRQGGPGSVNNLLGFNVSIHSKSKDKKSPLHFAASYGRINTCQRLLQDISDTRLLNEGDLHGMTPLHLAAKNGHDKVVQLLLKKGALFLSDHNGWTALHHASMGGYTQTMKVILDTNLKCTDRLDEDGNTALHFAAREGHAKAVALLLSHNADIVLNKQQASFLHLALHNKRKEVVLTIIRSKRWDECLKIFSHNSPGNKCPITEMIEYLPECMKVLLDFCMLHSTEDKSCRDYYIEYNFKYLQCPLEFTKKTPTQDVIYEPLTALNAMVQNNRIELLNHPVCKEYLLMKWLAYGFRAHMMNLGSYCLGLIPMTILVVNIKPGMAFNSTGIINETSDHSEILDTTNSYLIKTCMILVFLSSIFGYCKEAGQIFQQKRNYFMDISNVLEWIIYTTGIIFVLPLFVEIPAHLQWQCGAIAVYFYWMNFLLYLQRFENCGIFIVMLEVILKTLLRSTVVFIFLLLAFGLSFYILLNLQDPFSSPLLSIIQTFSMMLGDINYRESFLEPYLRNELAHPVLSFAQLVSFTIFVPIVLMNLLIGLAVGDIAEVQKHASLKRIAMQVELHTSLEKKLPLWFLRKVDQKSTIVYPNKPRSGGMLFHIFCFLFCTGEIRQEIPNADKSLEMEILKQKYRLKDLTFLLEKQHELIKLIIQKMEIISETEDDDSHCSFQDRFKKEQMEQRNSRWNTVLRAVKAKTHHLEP

[4] = target: Transient receptor potential cation channel subfamily V member 4 (Homo sapiens) (UniProt Q9HBA0); assay: Antagonist activity at TRPV4 (unknown origin) expressed in HEK293T cells assessed as inhibition of agonist induced channel current by whole-cell patch clamp recordings
Sequence of Transient receptor potential cation channel subfamily V member 4 (Homo sapiens) (Q9HBA0 whole entry): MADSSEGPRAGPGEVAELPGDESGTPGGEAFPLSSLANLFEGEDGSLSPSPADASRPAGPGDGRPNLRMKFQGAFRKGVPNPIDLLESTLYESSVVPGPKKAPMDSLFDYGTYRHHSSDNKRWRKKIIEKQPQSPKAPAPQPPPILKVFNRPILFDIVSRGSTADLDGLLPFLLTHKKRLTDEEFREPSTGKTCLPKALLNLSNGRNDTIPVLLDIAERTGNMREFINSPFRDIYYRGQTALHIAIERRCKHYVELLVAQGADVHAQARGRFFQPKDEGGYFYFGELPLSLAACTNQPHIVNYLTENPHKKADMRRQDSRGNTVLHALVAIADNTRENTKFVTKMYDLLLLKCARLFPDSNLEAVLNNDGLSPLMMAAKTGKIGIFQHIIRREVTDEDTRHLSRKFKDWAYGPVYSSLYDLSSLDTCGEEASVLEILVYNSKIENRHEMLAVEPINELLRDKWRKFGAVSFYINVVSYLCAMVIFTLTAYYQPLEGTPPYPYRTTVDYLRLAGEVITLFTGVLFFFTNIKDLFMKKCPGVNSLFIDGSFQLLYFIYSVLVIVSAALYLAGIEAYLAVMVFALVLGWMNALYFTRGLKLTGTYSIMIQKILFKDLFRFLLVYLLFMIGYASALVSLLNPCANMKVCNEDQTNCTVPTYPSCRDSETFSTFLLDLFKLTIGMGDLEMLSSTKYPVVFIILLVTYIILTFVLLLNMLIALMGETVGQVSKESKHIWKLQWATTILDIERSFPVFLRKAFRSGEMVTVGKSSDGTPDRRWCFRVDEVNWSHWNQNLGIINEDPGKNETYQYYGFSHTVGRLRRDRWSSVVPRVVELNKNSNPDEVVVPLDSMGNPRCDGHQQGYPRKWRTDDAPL

[5] = target: Transient receptor potential cation channel subfamily M member 8 (Homo sapiens) (UniProt Q7Z2W7); assay: Antagonist activity at TRPM8 (unknown origin) expressed in HEK293T cells assessed as inhibition of agonist induced channel current by whole-cell patch clamp recordings
Sequence of Transient receptor potential cation channel subfamily M member 8 (Homo sapiens) (Q7Z2W7 whole entry, looked up): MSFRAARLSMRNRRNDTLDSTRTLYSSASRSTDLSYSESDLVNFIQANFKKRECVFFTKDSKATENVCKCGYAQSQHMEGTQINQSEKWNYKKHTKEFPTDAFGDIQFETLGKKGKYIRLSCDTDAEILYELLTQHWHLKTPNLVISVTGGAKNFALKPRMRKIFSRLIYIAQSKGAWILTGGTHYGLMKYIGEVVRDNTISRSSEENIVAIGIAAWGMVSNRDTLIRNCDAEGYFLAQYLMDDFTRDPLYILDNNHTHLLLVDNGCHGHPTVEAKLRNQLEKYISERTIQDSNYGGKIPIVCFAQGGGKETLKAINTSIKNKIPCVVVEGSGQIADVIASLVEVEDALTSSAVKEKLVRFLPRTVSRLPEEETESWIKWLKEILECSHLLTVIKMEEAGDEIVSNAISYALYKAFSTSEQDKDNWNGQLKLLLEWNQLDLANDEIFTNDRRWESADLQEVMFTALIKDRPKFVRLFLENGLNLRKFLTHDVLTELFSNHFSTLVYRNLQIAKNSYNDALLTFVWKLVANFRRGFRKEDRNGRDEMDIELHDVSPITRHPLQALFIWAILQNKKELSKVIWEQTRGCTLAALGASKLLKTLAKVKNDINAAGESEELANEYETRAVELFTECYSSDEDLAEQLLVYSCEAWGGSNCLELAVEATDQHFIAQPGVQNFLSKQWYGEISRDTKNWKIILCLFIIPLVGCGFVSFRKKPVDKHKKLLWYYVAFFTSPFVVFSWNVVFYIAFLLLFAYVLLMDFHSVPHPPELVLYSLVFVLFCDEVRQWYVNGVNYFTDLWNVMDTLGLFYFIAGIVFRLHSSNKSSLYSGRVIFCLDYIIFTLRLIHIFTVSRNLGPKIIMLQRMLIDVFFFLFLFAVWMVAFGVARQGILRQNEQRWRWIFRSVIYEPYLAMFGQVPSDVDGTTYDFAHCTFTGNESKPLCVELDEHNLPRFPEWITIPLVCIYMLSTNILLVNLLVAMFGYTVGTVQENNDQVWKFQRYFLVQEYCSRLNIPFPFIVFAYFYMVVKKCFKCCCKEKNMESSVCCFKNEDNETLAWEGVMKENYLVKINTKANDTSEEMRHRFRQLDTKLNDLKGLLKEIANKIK

[6] = target: Transient receptor potential cation channel subfamily V member 1 (Homo sapiens) (UniProt Q8NER1); assay: Antagonist activity at TRPV1 (unknown origin) expressed in HEK293T cells assessed as inhibition of agonist induced channel current by whole-cell patch clamp recordings
Sequence of Transient receptor potential cation channel subfamily V member 1 (Homo sapiens) (Q8NER1 whole entry): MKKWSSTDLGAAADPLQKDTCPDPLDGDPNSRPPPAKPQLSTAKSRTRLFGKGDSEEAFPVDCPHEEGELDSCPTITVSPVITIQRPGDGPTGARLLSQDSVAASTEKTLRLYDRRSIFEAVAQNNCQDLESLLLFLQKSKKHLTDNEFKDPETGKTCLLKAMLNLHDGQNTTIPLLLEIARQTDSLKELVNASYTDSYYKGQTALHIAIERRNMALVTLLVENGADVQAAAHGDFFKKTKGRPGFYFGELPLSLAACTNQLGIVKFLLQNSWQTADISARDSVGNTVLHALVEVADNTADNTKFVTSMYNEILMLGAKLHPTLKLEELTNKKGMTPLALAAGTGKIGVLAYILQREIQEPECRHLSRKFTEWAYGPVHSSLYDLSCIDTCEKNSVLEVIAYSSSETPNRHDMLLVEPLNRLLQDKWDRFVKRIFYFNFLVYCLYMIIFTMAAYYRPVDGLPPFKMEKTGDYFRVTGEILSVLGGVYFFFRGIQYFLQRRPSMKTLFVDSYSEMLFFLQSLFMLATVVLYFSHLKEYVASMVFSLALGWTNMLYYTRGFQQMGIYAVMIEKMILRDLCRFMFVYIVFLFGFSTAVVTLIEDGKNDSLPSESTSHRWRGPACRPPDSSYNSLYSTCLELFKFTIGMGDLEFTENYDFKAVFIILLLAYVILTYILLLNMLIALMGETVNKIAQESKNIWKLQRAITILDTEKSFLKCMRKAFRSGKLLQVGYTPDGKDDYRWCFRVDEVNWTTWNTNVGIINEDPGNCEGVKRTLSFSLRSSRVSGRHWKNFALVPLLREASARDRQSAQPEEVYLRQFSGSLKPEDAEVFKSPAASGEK

Row | Structure (SMILES) | inhibition [1] | further results
1 | O=c1cc(-c2ccc(OC(F)(F)F)cc2)oc2cc(O)cc(O)c12 | 3.81% | 
2 | COc1ccc(C2CC(=O)c3c(O)cccc3O2)cc1 (stereo not drawn) | 4.96% | 
3 | C[C@@H]1O[C@@H](O[C@@H]2[C@@H](O)[C@H](OCCc3ccc(O)c(O)c3)O[C@H](CO[C@@H]3OC[C@](O)(CO)[C@H]3O)[C@H]2OC(=O)/C=C/c2ccc(O)c(O)c2)[C@H](O)[C@H](O)[C@H]1O |  | inhibition ([1]; filed as antagonist): 58.8%; IC50 [2]: 10.8 µM
4 | O=c1cc(-c2ccc(Br)cc2)oc2cc(O)ccc12 | 1.94% | 
5 | O=c1cc(-c2ccc(O)cc2F)oc2cc(O)cc(O)c12 | 13% | 
6 | O=c1cc(-c2ccc(O)cc2Br)oc2cc(O)cc(O)c12 |  | inhibition ([1]; filed as antagonist): 51.7%
7 | COCOc1cc(OCOC)c2c(c1)OC(c1ccc(F)cc1)CC2=O (stereo not drawn) | 5.55% | 
8 | COc1ccc(-c2cc(=O)c3c(O)cccc3o2)cc1 | 4.68% | 
9 | O=c1cc(-c2ccc(F)cc2)oc2cc(O)cc(O)c12 | 21.2% | 
10 | COc1ccc(-c2cc(=O)c3c(O)cc(O)cc3o2)cc1 [ACACETIN] |  | inhibition ([1]; filed as antagonist): 61.8%; Activity [3]: inactive; IC50 [2]: 0.62 µM; Activity [4]: inactive; Activity [5]: inactive; Activity [6]: inactive
11 | Cc1ccc(-c2cc(=O)c3c(O)cc(O)cc3o2)cc1 | 10.3% | 
12 | O=c1cc(-c2cccc(O)c2)oc2c(O)c(O)ccc12 | 31.4% | 
